Reference: ChEMBL document CHEMBL1154361, “Oxiranylmethyloxy or thiiranylmethyloxy-azaxanthones and -acridone analogues as potential topoisomerase I inhibitors” (Bioorg Med Chem Lett, 2009)
Where a name gives a salt, the structure may show the parent alone.

What was measured:
[1] = target: DNA topoisomerase 2-alpha (Homo sapiens) (UniProt P11388); assay: Inhibition of human topoisomerase 2 at 100 uM
HeLa = assay: Cytotoxicity against human HeLa cells by MTT assay; type: functional, cell-based
[2] = target: DNA topoisomerase 2-alpha (Homo sapiens) (UniProt P11388); assay: Inhibition of human topoisomerase 2 at 20 uM
[3] = target: T1, DNA topoisomerase 1 (Homo sapiens) (UniProt P11387); assay: Inhibition of human topoisomerase 1 at 20 uM
T1 sequence (whole entry): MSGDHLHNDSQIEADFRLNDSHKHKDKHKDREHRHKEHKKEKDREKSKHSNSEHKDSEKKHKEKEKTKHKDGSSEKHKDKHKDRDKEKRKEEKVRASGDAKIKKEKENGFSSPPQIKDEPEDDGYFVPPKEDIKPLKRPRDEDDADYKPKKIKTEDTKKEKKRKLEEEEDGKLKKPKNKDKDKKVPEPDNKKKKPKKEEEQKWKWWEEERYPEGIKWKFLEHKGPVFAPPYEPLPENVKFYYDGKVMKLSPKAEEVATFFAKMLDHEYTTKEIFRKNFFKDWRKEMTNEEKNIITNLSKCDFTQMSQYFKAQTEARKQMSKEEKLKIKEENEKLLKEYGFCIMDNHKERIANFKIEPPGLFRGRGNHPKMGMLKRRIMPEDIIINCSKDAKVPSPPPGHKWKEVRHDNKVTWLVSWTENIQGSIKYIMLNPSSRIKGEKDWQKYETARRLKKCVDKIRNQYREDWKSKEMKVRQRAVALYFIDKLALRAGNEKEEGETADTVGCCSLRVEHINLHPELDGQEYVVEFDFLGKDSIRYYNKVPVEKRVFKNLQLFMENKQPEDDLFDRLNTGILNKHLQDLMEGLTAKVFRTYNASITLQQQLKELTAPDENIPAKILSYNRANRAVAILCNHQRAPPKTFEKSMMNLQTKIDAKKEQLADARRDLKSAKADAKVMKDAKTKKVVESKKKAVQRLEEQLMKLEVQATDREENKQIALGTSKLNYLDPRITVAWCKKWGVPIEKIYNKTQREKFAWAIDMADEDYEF

[4] = target: T1, DNA topoisomerase 1 (Homo sapiens); assay: Inhibition of human topoisomerase 1 at 100 uM
HT-29 = assay: Cytotoxicity against human HT-29 cells by MTT assay; type: functional, cell-based
MDA-MB-231 = assay: Cytotoxicity against human MDA-MB-231 cells by MTT assay; type: functional, cell-based
DU-145 = assay: Cytotoxicity against human DU145 cells by MTT assay; type: functional, cell-based
HL-60 = assay: Cytotoxicity against human HL60 cells by MTT assay; type: functional, cell-based

DNA topoisomerase 2-alpha (Homo sapiens), sequence (P11388 whole entry): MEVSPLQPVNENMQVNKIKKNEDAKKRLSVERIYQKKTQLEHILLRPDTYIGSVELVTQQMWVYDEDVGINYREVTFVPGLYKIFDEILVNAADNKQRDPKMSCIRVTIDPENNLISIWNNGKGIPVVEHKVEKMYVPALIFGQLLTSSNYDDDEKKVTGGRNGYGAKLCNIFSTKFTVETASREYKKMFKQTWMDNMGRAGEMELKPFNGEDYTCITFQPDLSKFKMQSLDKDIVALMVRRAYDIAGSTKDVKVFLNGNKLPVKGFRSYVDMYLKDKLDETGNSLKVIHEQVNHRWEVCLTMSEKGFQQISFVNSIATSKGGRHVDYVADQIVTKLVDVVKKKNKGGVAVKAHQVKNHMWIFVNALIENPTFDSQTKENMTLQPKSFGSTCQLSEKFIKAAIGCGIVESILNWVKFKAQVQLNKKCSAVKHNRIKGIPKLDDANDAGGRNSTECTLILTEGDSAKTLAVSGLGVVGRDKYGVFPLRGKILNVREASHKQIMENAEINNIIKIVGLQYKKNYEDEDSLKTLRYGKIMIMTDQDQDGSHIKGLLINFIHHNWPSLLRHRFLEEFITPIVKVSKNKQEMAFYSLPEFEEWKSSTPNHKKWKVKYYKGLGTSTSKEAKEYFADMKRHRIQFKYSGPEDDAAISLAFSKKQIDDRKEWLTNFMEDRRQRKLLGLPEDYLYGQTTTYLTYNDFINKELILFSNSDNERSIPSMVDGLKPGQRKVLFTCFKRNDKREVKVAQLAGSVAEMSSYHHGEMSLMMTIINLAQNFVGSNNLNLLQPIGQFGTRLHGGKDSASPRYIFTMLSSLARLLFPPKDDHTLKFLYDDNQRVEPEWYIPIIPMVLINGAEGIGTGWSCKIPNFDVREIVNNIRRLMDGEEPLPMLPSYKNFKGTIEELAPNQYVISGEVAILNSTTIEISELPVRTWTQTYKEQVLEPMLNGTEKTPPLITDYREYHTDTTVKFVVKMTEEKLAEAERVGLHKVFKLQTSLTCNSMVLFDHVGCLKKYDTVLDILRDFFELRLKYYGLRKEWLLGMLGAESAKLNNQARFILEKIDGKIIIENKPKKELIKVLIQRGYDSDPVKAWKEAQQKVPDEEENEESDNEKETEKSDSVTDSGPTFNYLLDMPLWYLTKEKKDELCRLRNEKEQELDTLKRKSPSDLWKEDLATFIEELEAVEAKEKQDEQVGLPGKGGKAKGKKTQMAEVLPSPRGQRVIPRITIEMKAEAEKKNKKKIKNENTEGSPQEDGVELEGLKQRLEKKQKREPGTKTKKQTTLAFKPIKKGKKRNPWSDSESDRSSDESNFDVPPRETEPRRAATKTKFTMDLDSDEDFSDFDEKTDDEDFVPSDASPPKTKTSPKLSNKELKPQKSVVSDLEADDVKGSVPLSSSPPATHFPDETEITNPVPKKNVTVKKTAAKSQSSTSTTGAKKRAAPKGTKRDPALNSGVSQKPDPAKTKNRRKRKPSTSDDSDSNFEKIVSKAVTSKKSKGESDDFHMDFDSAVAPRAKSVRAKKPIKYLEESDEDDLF

Structure (SMILES)	inhibition [1] [%]	IC50 (HeLa) [µM]	inhibition [2] [%]	inhibition [3] [%]	inhibition [4] [%]	IC50 (HT-29) [µM]	IC50 (MDA-MB-231) [µM]	IC50 (DU-145) [µM]	IC50 (HL-60) [µM]
O=c1c2cccnc2oc2cc(OCC3CS3)cc(OCC3CS3)c12 (centres undefined)	6.7	9.96	8.6	5.2	0	> 50	13	21	10.5
O=c1c2ccccc2[nH]c2cc(OCC3CO3)cc(OCC3CO3)c12 (centres undefined)	13.2	> 50	8.7	2.5	0	29.3	28.9	30.9	22
COc1cc([C@@H]2c3cc4c(cc3[C@@H](O[C@@H]3O[C@@H]5CO[C@@H](C)O[C@H]5[C@H](O)[C@H]3O)[C@H]3COC(=O)[C@H]23)OCO4)cc(OC)c1O [ETOPOSIDE]		2.15	13.4			6.32	3.5	5.16	0.93
O=c1c2cccnc2oc2cc(OCC3CS3)cc(O)c12 (centres undefined)	19.5	6.9	9.2	26.7	50.3	> 50	18.2	15.8	20.1
COc1cccc2c1C(=O)c1c(O)c3c(c(O)c1C2=O)C[C@@](O)(C(=O)CO)C[C@@H]3O[C@H]1C[C@H](N)[C@H](O)[C@H](C)O1 [DOXORUBICIN HYDROCHLORIDE]		1.08				3.9	1.67	2.54	0.88
O=c1c2ccccc2[nH]c2cc(OCC3CO3)cc(O)c12 (centres undefined)	18.1	> 50	12.9	10.8	9.1	> 50	18.6	> 50	12.5
O=c1c2ccccc2[nH]c2cc(OCC3CS3)cc(OCC3CS3)c12 (centres undefined)	6.9	11.1	8.5	0	0	23.2	8.02	23.2	7.73
O=c1c2ccccc2[nH]c2cc(OCC3CS3)cc(O)c12 (centres undefined)	8.7	> 50	8.1	0	2.3	33	21.4	23	23
CC[C@@]1(O)C(=O)OCc2c1cc1n(c2=O)Cc2cc3ccccc3nc2-1 [CAMPTOTHECIN]		0.58				1.07	0.68	1	0.067
O=c1c2cccnc2oc2cc(OCC3CO3)cc(O)c12 (centres undefined)	30.3	22.1	8.3	1.8	0	26.3	24.3	8.11	24.8
